Results taken from patent publication US20260132128A1, “COMPOUND FOR RECOVERING P53 MUTATION FUNCTION AND USE THEREOF” (SHENZHEN ZHONGGE BIOLOGICAL TECHNOLOGY CO., LTD., priority 2022, published 2026).
Marks after values point to notes of the source that are not given here.

Columns and labels:
[1] = target: T1, p53 Y220C (Homo sapiens, UniProt P04637, P309S/R273H/Y220C); assay: DNA binding test (HTRF): binding of P53Y220C protein to DNA; assay type: biochemical; conditions: HTRF, activation of p53 Y220C (aa 94-312) binding to biotin DNA
T1 construct: a truncated mutant containing only amino acids 94-312 of p53; made in house; host or cells: E. coli
Experimental: (§1) In order to detect the ability of the aforementioned compounds to increase the binding of P53Y220C protein to DNA, the binding activity of p53 Y220C was measured by homogeneous time-resolved fluorescence (HTRF). Recombinant His-tagged p53 Y220C for HTRF measurement was expressed in bacteria E. coli. The recombinant protein was a truncated mutant containing only amino acids 94-312 of p53, and its sequence was […] […] VEGNLR […] TFRh[…] […]. The sense strand of the DNA double strand was 5′-[…]-3′, with a biotin tag at the 5′ end for activity assay, and the antisense strand was 5′-[…]-3′ 40 mL of assay buffer (20 mM Tris HCL, pH 7.5, 50 mM NaCl, 2 mM MgCl2, 0.02% Tween 20, 0.01% BSA, 1 mM DTT) was prepared. 10 mM compound was prepared and subjected to 3-fold dilution to obtain 10 dose gradient dilutions of the compound. 20 nL of the compound was added to a 384-well assay plate (PerkinElmer 6007299) using an Echo 655 Liquid Handler. P53Y220C protein was dissolved in assay buffer to reach a final concentration of 150 nM, and 5 μL thereof was added to each well, and incubated at room temperature for 5 min. DNA was dissolved in assay buffer to reach a final concentration of 150 nM, and 5 μL thereof was added to each well, and incubated at room temperature for 15 min. Anti 6HIS-XL665 (Cisbio 61HISXLB) was dissolved in assay buffer to reach a final concentration of 20 nM, and 5 μL thereof was added to each well. Streptavidin-Eu cryptate (Cisbio 610SAKLA) was dissolved in assay buffer to reach a final concentration of 0.625 nM, and 5 μL thereof was added to each well, and incubated at 27° C. for 1 hour. The plate was then read for signal values on an Envision (PerkinElmer 2105-0020) plate reader at 665 nm and 615 nm, respectively. […] Activation rate={(A-C)/(C)}*100%, A=(signal value at 665 nm/signal value at 615 nm); C=average signal of negative control (wherein, negative control referred to 0.1% DMSO).

[2] = target: T2, p53 Y220C (Homo sapiens, UniProt P04637, Y220C); assay: as above; assay type: biochemical; conditions: multiple ratio of EC50 of the compound to the reference compound, DNA binding test
T2 construct: a truncated mutant containing only amino acids 94-312 of p53; made in house; host or cells: E. coli
Experimental: as §1

[3] = tested on: NUGC-3 cells; assay: NUGC-3 cell proliferation assay (CTG); assay type: cell-based, human; conditions: for GI50: 6 days, CTG; for Compound GI50 (nM)/Reference compound GI50 (nM): multiple ratio of GI50 of the compound to the reference compound
Experimental: In order to detect the inhibitory effect of the aforementioned compounds on the proliferation ability of NUGC-3 cells, 250 NUGC-3 cells (Nanjing Cobioer Biosciences Co., Ltd., CBP60492) were seeded into a 384-well plate (Corning 3765), 35 μL per well, and incubated overnight in a constant temperature incubator at 37° C. and 5% CO2. Then, 40 nL of the compound was added to the 384-well plate using an Echo 655 Liquid Handler, with a maximum final concentration of 10 μM, 1:3 serial dilutions, and a total of 10 doses. The culture was performed at 37° C. and 5% CO2 for 6 days. The plate was taken out from the incubator and equilibrated at room temperature for 10 minutes. 20 μL of CTG (Promage G7572) was added to each well of the plate according to the platemap. The plate was centrifuged at 1000 rpm for 1 min. The lysis of cells was induced by mixing on a shaker for 2 min. The plate was centrifuged at 1000 rpm for 1 min. Incubation was performed at room temperature for 10 min to stabilize luminescence signals. Luminescence values were recorded by Envision (PerkinElmer 2105-0020). GraphPad 9.0 was used to fit the inhibition rate and compound concentration into a nonlinear regression curve (dose response-variable slope) to calculate GI50, inhibition rate={1−(A−B)/(C−B)}*100%, A=signal value of compound; B=average signal of blank control; C=average signal of negative control (wherein negative control was 0.1% DMSO).

`CNC(=O)c1ccc(NCC#Cc2nc3c(NC4CCC(N5CC6(COC6)C5)CC4F)cccn3c2CC(F)(F)F)c(OC)c1` (single isomer, unassigned) [Compound 35-6e] was tested, and the EC50 [1] was 100 to 500 nM, the “Compound EC50 (nM)/Reference compound EC50 (nM)” value (shortened to “Compound EC50”) [2] was “C (C: EC50 of the compound≥3*EC50 of the reference compound)” and the GI50 [3] was at least 5000 nM. The “Compound GI50 (nM)/Reference compound GI50 (nM)” value (“Compound GI50” for short) [3] was “C (C: GI50 of the compound ≥ 3 * GI50 of the reference compound)”.
`COc1cc(NCC#Cc2nc3c(NC4CCN(C)CC4)cccn3c2CC(F)(F)F)c(NC(C)=O)cn1` [Compound 26] was tested, and the “Compound EC50” value [2] was “C (C: EC50 of the compound≥3*EC50 of the reference compound)” and the “Compound GI50” value [3] was “C (C: GI50 of the compound ≥ 3 * GI50 of the reference compound)”.
With `CNC(=O)c1ccc(NCC#Cc2nc3c(NC4CC[C@@H](N5CCCC5)C[C@@H]4F)cccn3c2CC(F)(F)F)c(OC)c1` (stereo partly shown) [Compound 41] the “Compound EC50” value [2] was “B (B: EC50 of the reference compound<EC50 of the compound≤3.0*EC50 of the reference compound)”, the GI50 ([3]; Homo sapiens, NUGC-3, 144 h) was under 1000 nM and the “Compound GI50” value [3] was “B (B: GI50 of the reference compound < GI50 of the compound ≤ 3.0 * GI50 of the reference compound)”.
In the case of `CNC(=O)c1ccc(NCC#Cc2nc3c(N[C@@H]4CC[C@@H](N5CCCC5)C[C@@H]4F)cccn3c2CC(F)(F)F)c(OC)c1` [Compound 41], the EC50 [1] is reported as under 100 nM.
`CNC(=O)c1ccc(NCC#Cc2nc3c(N[C@@H]4CC[C@@H](N5CC6(CCC6)C5)C[C@@H]4F)cccn3c2CC(F)(F)F)c(OC)c1` [Compound 42] showed an EC50 [1] of under 100 nM.
For `CNC(=O)c1ccc(NCC#Cc2nc3c(N[C@@H]4CCC(N5CCCCC5)C[C@@H]4F)cccn3c2CC(F)(F)F)c(OC)c1` (stereo partly shown) [Compound 43], the “Compound EC50” value [2] was “C (C: EC50 of the compound≥3*EC50 of the reference compound)” and the “Compound GI50” value [3] was “C (C: GI50 of the compound ≥ 3 * GI50 of the reference compound)”.
With `CNC(=O)c1ccc(NCC#Cc2nc3c(NC4CC[C@@H](N5CC6(CCCCC6)C5)C[C@@H]4F)cccn3c2CC(F)(F)F)c(OC)c1` (stereo partly shown) [Compound 45] the “Compound EC50” value [2] was “B (B: EC50 of the reference compound<EC50 of the compound≤3.0*EC50 of the reference compound)” and the “Compound GI50” value [3] was “C (C: GI50 of the compound ≥ 3 * GI50 of the reference compound)”.
In the case of `CNC(=O)c1ccc(NCC#Cc2nc3c(NC4CC[C@@H](N5CC6(CCOCC6)C5)C[C@@H]4F)cccn3c2CC(F)(F)F)c(OC)c1` (stereo partly shown) [Compound 46], the “Compound EC50” value [2] is reported as “A (A: EC50 of the compound≤EC50 of the reference compound)”, the GI50 ([3]; Homo sapiens, NUGC-3, 144 h) is reported as under 1000 nM and the “Compound GI50” value [3] is reported as “B (B: GI50 of the reference compound < GI50 of the compound ≤ 3.0 * GI50 of the reference compound)”.
Work on `CNC(=O)c1ccc(NCC#Cc2nc3c(N[C@@H]4CC[C@@H](N5CC6(CCOCC6)C5)C[C@@H]4F)cccn3c2CC(F)(F)F)c(OC)c1` [Compound 46] yielded an EC50 [1] of under 100 nM.
`CONC(=O)c1ccc(NCC#Cc2nc3c(NC4CC[C@@H](N5CC6(COC6)C5)C[C@@H]4F)cccn3c2CC(F)(F)F)c(OC)c1` (stereo partly shown) [Compound 53] was tested, and the “Compound EC50” value [2] was “A (A: EC50 of the compound≤EC50 of the reference compound)”, the GI50 ([3]; Homo sapiens, NUGC-3, 144 h) was under 1000 nM and the “Compound GI50” value [3] was “C (C: GI50 of the compound ≥ 3 * GI50 of the reference compound)”.
In the case of `CONC(=O)c1ccc(NCC#Cc2nc3c(N[C@@H]4CC[C@@H](N5CC6(COC6)C5)C[C@@H]4F)cccn3c2CC(F)(F)F)c(OC)c1` [Compound 53], the EC50 [1] is reported as under 100 nM.
For `COc1cc(C(=O)NCC(F)F)ccc1NCC#Cc1nc2c(NC3CC[C@@H](N4CC5(COC5)C4)C[C@@H]3F)cccn2c1CC(F)(F)F` (stereo partly shown) [Compound 55], the “Compound EC50” value [2] was “B (B: EC50 of the reference compound<EC50 of the compound≤3.0*EC50 of the reference compound)” and the “Compound GI50” value [3] was “C (C: GI50 of the compound ≥ 3 * GI50 of the reference compound)”.
`COc1cc(C(=O)NC2CC(F)C2)ccc1NCC#Cc1nc2c(NC3CC[C@@H](N4CC5(COC5)C4)C[C@@H]3F)cccn2c1CC(F)(F)F` (stereo partly shown) [Compound 56] was tested, and the “Compound EC50” value [2] was “C (C: EC50 of the compound≥3*EC50 of the reference compound)” and the “Compound GI50” value [3] was “C (C: GI50 of the compound ≥ 3 * GI50 of the reference compound)”.
For `CNC(=O)c1ccc(NCC#Cc2nc3c(N[C@@H]4CC[C@@H](N5CC6(COC6)C5)C[C@@H]4F)cccn3c2CC(F)(F)F)c(OC2CC2)c1` [Compound 57], the EC50 [1] was under 100 nM.
`CNC(=O)c1ccc(NCC#Cc2nc3c(N[C@@H]4CC[C@@H](N5CC6(COC6)C5)C[C@@H]4F)cccn3c2CC(F)(F)F)c(OCF)c1` [Compound 58] gave an EC50 [1] of under 100 nM.
With `CNC(=O)c1ccc(NCC#Cc2nc3c(NC4CC[C@@H](N5CC6(COC6)C5)C[C@@H]4F)cccn3c2CC(F)(F)F)c(OCC(F)(F)F)c1` (stereo partly shown) [Compound 59] the “Compound EC50” value [2] was “B (B: EC50 of the reference compound<EC50 of the compound≤3.0*EC50 of the reference compound)” and the “Compound GI50” value [3] was “C (C: GI50 of the compound ≥ 3 * GI50 of the reference compound)”.
`CNC(=O)c1ccc(NCC#Cc2nc3c(NC4CC[C@@H](N5CC6(COC6)C5)C[C@@H]4F)cccn3c2CC(F)(F)F)c(OC2COC2)c1` (stereo partly shown) [Compound 60] was tested, and the “Compound EC50” value [2] was “B (B: EC50 of the reference compound<EC50 of the compound≤3.0*EC50 of the reference compound)” and the “Compound GI50” value [3] was “C (C: GI50 of the compound ≥ 3 * GI50 of the reference compound)”.
With `CNC(=O)c1ccc(NCC#Cc2nc3c(NC4CC[C@@H](N5CC6(COC6)C5)C[C@@H]4F)cccn3c2CC(F)(F)F)c(OC2CCC2)c1` (stereo partly shown) [Compound 61] the “Compound EC50” value [2] was “B (B: EC50 of the reference compound<EC50 of the compound≤3.0*EC50 of the reference compound)” and the “Compound GI50” value [3] was “C (C: GI50 of the compound ≥ 3 * GI50 of the reference compound)”.
`CNC(=O)c1ccc(NCC#Cc2nc3c(NC4CC[C@@H](N5CC6(COC6)C5)C[C@@H]4F)cccn3c2CC(F)(F)F)c(OCC(F)F)c1` (stereo partly shown) [Compound 62] was tested, and the “Compound EC50” value [2] was “B (B: EC50 of the reference compound<EC50 of the compound≤3.0*EC50 of the reference compound)” and the “Compound GI50” value [3] was “C (C: GI50 of the compound ≥ 3 * GI50 of the reference compound)”.
For `CNC(=O)c1ccc(NCC#Cc2nc3c(NC4CC[C@@H](N5CC6(COC6)C5)C[C@@H]4F)cccn3c2CC(F)(F)F)c(OCCF)c1` (stereo partly shown) [Compound 63], the “Compound EC50” value [2] was “B (B: EC50 of the reference compound<EC50 of the compound≤3.0*EC50 of the reference compound)” and the “Compound GI50” value [3] was “C (C: GI50 of the compound ≥ 3 * GI50 of the reference compound)”.
With `CNC(=O)c1ccc(NCC#Cc2cc3c(NC4CC[C@@H](N5CC6(COC6)C5)C[C@@H]4F)cccn3c2CC(F)(F)F)c(OC)c1` (stereo partly shown) [Compound 65] the “Compound EC50” value [2] was “B (B: EC50 of the reference compound<EC50 of the compound≤3.0*EC50 of the reference compound)”, the GI50 ([3]; Homo sapiens, NUGC-3, 144 h) was under 1000 nM and the “Compound GI50” value [3] was “A (A: GI50 of the compound ≤ GI50 of the reference compound)”.
With `CNC(=O)c1ccc(NCC#Cc2cc3c(NC4CC[C@@H](N5CC6(COC6)C5)C[C@@H]4F)ccnn3c2CC(F)(F)F)c(OC)c1` (stereo partly shown) [Compound 68] the “Compound EC50” value [2] was “C (C: EC50 of the compound≥3*EC50 of the reference compound)” and the “Compound GI50” value [3] was “C (C: GI50 of the compound ≥ 3 * GI50 of the reference compound)”.
For `CNC(=O)c1ccc(NCC#Cc2cc3c(N[C@@H]4CCN(C)C[C@@H]4F)ccnn3c2CC(F)(F)F)c(OC)c1` [Compound 85], the “Compound EC50” value [2] was “C (C: EC50 of the compound≥3*EC50 of the reference compound)” and the “Compound GI50” value [3] was “C (C: GI50 of the compound ≥ 3 * GI50 of the reference compound)”.
